Target: T1, hSOS1 (hSOS1-mediated loading of hK-RasG12C-GDP) (Homo sapiens, UniProt Q07889)
T1 construct: hSOS1 (amino acid 564-1049); made in house; host or cells: E. coli BL21 (DE3)
T1 sequence (Q07889 with tags, fused parts or gaps): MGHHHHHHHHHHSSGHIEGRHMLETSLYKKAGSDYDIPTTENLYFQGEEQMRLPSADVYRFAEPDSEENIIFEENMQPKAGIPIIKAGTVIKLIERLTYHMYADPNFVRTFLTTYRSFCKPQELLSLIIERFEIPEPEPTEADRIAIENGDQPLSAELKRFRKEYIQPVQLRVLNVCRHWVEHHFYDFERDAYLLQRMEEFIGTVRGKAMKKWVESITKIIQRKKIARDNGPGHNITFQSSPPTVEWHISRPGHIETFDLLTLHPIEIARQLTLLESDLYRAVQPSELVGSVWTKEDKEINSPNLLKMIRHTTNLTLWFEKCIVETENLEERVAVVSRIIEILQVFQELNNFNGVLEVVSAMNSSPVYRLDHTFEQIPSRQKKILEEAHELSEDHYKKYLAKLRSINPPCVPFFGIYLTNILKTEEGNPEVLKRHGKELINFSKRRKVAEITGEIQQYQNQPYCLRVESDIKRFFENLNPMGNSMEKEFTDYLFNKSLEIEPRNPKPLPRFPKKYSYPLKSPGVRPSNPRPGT
Assay: Biochemical Assay 3: hK-RasG12C activation assay by hSOS1 (loading with fluorescent GTP analog, HTRF)
Settings: no GTP

| Structure (SMILES) | IC50 |
| --- | --- |
| Cc1nc(NC(C)c2ccc(-c3ccccc3CN(C)C)s2)c2cc(Oc3cccc(C4=NCCN4C)c3)ncc2n1 (stereo not drawn) [Example 58, N-[1-(5-{2-[(dimethylamino)methyl]phenyl}thiophen-2-yl)ethyl]-2-methyl-6-[3-(1-methyl-4,5-dihydro-1H-imidazol-2-yl)phenoxy]pyrido[3,4-d]pyrimidin-4-amine] | 155 nM |
| Cc1nc(NC(C)c2ccc(-c3ccccc3CN(C)C)s2)c2cc(C3CCN(C)C3=O)ncc2n1 (mixture of isomers) [Example 69, 3-(4-{[1-(5-{2-[(dimethylamino)methyl]phenyl}thiophen-2-yl)ethyl]amino}-2-methylpyrido[3,4-d]pyrimidin-6-yl)-1-methylpyrrolidin-2-one] | 141 nM |
| Cc1nc(N[C@H](C)c2cccc(Br)c2)c2cc(OCCCN(C)C)ncc2n1 [Example 70, N-[(1R)-1-(3-bromophenyl)ethyl]-6-[3-(dimethylamino)propoxy]-2-methylpyrido[3,4-d]pyrimidin-4-amine] | 1340 nM |
| Cc1nc(N[C@H](C)c2cccc(Br)c2)c2nc(OCc3ccccc3)ccc2n1 [Example 33, 6-(benzyloxy)-N-[(1R)-1-(3-bromophenyl)ethyl]-2-methylpyrido[3,2-d]pyrimidin-4-amine] | > 20000 nM |
| Cc1nc(N[C@H](C)c2cccc(Br)c2)c2cc(NC3CCOCC3)ncc2n1 [Example 46] | 12800 nM |
| COc1ncc2nc(C)nc(N[C@H](C)c3cccc(Br)c3)c2n1 [Example 24, N-[(1R)-1-(3-bromophenyl)ethyl]-6-methoxy-2-methylpyrimido[5,4-d]pyrimidin-4-amine] | > 20000 nM |
| Cc1nc(NC(C)c2ccc(-c3ccccc3CN(C)C)s2)c2cc(N3CC(N)C3)ncc2n1 (stereo not drawn) [Example 93, 6-(3-aminoazetidin-1-yl)-N-[1-(5-{2-[(dimethylamino)methyl]phenyl}thiophen-2-yl)ethyl]-2-methylpyrido[3,4-d]pyrimidin-4-amine] | 82.9 nM |
| CC(=O)NCCNc1cc2c(NC(C)c3ccc(-c4ccccc4CN(C)C)s3)nc(C)nc2cn1 (stereo not drawn) [Example 51, N-{2-[(4-{[1-(5-{2-[(dimethylamino)methyl]phenyl}thiophen-2-yl)ethyl]amino}-2-methylpyrido[3,4-d]pyrimidin-6-yl)amino]ethyl}acetamide] | 89.5 nM |
| Cc1nc(NC(C)c2ccc(-c3ccccc3CN(C)C)s2)c2cc(C3(O)CCN(C)C3=O)ncc2n1 (mixture of isomers) [Example 85, 3-(4-{[1-(5-{2-[(dimethylamino)methyl]phenyl}thiophen-2-yl)ethyl]amino}-2-methylpyrido[3,4-d]pyrimidin-6-yl)-3-hydroxy-1-methylpyrrolidin-2-one] | 212 nM |
| Cc1nc(NC(C)c2ccc(-c3ccccc3CN(C)C)s2)c2cc(NC3CCOCC3)ncc2n1 (stereo not drawn) [Example 53, N4-[1-(5-{2-[(dimethylamino)methyl]phenyl}-2-thienyl)ethyl]-2-methyl-N6-(tetrahydro-2H-pyran-4-yl)pyrido[3,4-d]pyrimidine-4,6-diamine] | 239 nM |
| Cc1nc(NC(C)c2ccc(-c3ccccc3CN(C)C)s2)c2cc(NCCn3cccn3)ncc2n1 (stereo not drawn) [Example 54, N4-[1-(5-{2-[(dimethylamino)methyl]phenyl}-2-thienyl)ethyl]-2-methyl-N6-[2-(1H-pyrazol-1-yl)ethyl]pyrido[3,4-d]pyrimidine-4,6-diamine] | 189 nM |
| Cc1nc(N[C@H](C)c2cccc(Br)c2)c2nc(N3CCOCC3)ccc2n1 [Example 27, N-[(1R)-1-(3-bromophenyl)ethyl]-2-methyl-6-(morpholin-4-yl)pyrido[3,2-d]pyrimidin-4-amine] | 10600 nM |
| Cc1nc(N[C@H](C)c2cccc(Br)c2)c2cc(OCC3CC3)ncc2n1 [Example 75, N-[(1R)-1-(3-bromophenyl)ethyl]-6-(cyclopropylmethoxy)-2-methylpyrido[3,4-d]pyrimidin-4-amine] | 15200 nM |
| Cc1nc(N[C@H](C)c2cccc(Br)c2)c2cc(NCCn3ccnc3)ncc2n1 [Example 84, N4-[(1R)-1-(3-bromophenyl)ethyl]-N6-[2-(1H-imidazol-1-yl)ethyl]-2-methylpyrido[3,4-d]pyrimidine-4,6-diamine] | 1210 nM |
| COc1ccc2nc(C)nc(N[C@H](C)c3cccc(Br)c3)c2n1 [Example 28, N-[(1R)-1-(3-bromophenyl)ethyl]-6-methoxy-2-methylpyrido[3,2-d]pyrimidin-4-amine] | > 20000 nM |
| CCOc1cc2c(N[C@H](C)c3cccc(Cl)c3)nc(C)nc2cn1 [Example 6] | 1690 nM |
| Cc1nc(NC(C)c2ccc(-c3ccccc3CN(C)C)s2)c2cc(N3CC(NS(=O)(=O)Cc4ccccc4)C3)ncc2n1 (stereo not drawn) [Example 95, N-[1-(4-{[1-(5-{2-[(dimethylamino)methyl]phenyl}thiophen-2-yl)ethyl]amino}-2-methylpyrido[3,4-d]pyrimidin-6-yl)azetidin-3-yl]-1-phenylmethanesulfonamide] | 204 nM |
| Cc1nc(NC(C)c2ccc(-c3ccccc3CN(C)C)s2)c2cc(NCCN3CCOCC3)ncc2n1 (stereo not drawn) [Example 48] | 114 nM |
| CCOc1ncc2nc(C)nc(N[C@H](C)c3cccc(Br)c3)c2n1 [Example 23, N-[(1R)-1-(3-bromophenyl)ethyl]-6-ethoxy-2-methylpyrimido[5,4-d]pyrimidin-4-amine] | 3280 nM |
| CCOc1ccc2nc(C)nc(N[C@H](C)c3cccc(Br)c3)c2n1 [Example 29, N-[(1R)-1-(3-bromophenyl)ethyl]-6-ethoxy-2-methylpyrido[3,2-d]pyrimidin-4-amine] | > 20000 nM |
| COc1cc2c(NC(C)c3cccc4sccc34)nc(C)nc2cn1 (stereo not drawn) [Example 4, N-[1-(1-benzothiophen-4-yl)ethyl]-6-methoxy-2-methylpyrido[3,4-d]pyrimidin-4-amine] | 555 nM |
| Cc1nc(NC(C)c2ccc(Br)s2)c2cc(F)ncc2n1 (stereo not drawn) [Example 35] | > 20000 nM |
| CSc1cc2c(NC(C)c3ccc(-c4ccccc4CN(C)C)s3)nc(C)nc2cn1 (stereo not drawn) [Example 59, N-[1-(5-{2-[(dimethylamino)methyl]phenyl}thiophen-2-yl)ethyl]-2-methyl-6-(methylsulfanyl)pyrido[3,4-d]pyrimidin-4-amine] | 67.7 nM |
| Cc1nc(N[C@H](C)c2cccc(Br)c2)c2cc(NCCn3cccn3)ncc2n1 [Example 49, N4-[(1R)-1-(3-bromophenl)pethyl]-2-methyl-N6-[2-(1H-pyrazol-1-yl)ethyl]pyrido[3,4-d]pyrimidine-4,6-diamine] | 6990 nM |

— patent US20220274979A1 (Bayer Pharma Aktiengesellschaft, priority 2018, published 2022)
